Measured values taken from patent US9422267B2, “Fused pyrimidine compounds and use thereof” (Medivation Technologies, Inc., priority 2012, dated 2016).
Blank lines part the entries; values can stand above or below the compound they belong to.

What was measured:
[1] = molecular target: T1, AMPK-α2/β1/γ1 (Homo sapiens, UniProt P54646); assay: Caliper kinase profiling: AMPK-α2/β1/γ1; format: biochemical
T1 construct: purchased Caliper LifeSciences (ProfilerPro Kinase Selectivity Assay Kits)

[2] = molecular target: T2, BLK (Homo sapiens, UniProt P51451); assay: Caliper kinase profiling: BLK; format: biochemical
T2 construct: purchased Caliper LifeSciences (ProfilerPro Kinase Selectivity Assay Kits)
T2 sequence (P51451 whole entry): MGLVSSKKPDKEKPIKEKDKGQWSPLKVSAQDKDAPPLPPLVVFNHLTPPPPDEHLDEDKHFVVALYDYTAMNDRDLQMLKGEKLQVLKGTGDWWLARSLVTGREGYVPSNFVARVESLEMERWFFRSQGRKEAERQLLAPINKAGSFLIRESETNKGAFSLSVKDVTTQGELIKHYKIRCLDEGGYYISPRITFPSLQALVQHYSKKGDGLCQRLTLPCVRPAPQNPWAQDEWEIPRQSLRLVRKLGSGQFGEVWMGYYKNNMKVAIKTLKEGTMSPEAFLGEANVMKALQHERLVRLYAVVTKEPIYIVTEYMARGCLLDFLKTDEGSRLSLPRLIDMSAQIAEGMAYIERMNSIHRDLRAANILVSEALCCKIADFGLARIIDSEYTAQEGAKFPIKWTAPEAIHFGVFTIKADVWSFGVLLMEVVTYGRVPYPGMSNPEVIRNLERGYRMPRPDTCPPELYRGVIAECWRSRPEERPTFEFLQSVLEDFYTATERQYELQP

[3] = molecular target: DDR2 (Homo sapiens, UniProt Q16832); assay: Caliper kinase profiling: DDR2; format: biochemical; settings: DDR2, 1 μM; read-out: Average % Inh @ 1 μM
[4] = molecular target: EPHB1 (Homo sapiens, UniProt P54762); assay: Caliper kinase profiling: EPHB1; format: biochemical; settings: EPHB1, 1 μM; read-out: Average % Inh @ 1 μM
[5] = molecular target: FGFR2 (Homo sapiens, UniProt P21802); assay: Caliper kinase profiling: FGFR2; format: biochemical
Sequence of FGFR2 (P21802 22-821): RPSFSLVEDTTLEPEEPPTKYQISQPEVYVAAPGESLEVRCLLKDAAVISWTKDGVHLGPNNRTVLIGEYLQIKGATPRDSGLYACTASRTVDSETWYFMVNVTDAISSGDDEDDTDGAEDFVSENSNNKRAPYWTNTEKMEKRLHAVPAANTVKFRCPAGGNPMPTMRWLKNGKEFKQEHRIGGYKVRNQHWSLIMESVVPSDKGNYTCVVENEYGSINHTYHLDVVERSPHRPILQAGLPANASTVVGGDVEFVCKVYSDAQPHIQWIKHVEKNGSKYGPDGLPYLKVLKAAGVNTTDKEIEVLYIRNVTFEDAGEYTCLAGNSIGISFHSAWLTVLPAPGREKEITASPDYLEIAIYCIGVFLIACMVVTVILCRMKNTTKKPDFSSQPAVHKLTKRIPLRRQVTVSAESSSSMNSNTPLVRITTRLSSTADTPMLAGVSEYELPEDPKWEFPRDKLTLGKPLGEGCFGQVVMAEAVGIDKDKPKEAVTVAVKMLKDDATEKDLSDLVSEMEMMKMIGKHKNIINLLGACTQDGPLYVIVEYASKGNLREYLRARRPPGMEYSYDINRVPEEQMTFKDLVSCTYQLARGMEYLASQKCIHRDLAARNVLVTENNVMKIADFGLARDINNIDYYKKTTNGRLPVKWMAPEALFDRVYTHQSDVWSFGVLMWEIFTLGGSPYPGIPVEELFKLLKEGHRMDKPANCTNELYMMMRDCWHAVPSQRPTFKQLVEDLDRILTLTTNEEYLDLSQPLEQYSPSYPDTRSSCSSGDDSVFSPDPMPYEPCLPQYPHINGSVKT

[6] = molecular target: FGR (Homo sapiens, UniProt P09769); assay: Caliper kinase profiling: FGR; format: biochemical
[7] = molecular target: Flt3(D835Y) (Homo sapiens, UniProt P36888, D835Y); assay: Caliper kinase profiling: Flt3(D835Y); format: biochemical; settings: read-out: Average % Inh @ 1 μM
[8] = molecular target: FYN (Homo sapiens, UniProt P06241); assay: Caliper kinase profiling: FYN; format: biochemical
Sequence of FYN (P06241 whole entry): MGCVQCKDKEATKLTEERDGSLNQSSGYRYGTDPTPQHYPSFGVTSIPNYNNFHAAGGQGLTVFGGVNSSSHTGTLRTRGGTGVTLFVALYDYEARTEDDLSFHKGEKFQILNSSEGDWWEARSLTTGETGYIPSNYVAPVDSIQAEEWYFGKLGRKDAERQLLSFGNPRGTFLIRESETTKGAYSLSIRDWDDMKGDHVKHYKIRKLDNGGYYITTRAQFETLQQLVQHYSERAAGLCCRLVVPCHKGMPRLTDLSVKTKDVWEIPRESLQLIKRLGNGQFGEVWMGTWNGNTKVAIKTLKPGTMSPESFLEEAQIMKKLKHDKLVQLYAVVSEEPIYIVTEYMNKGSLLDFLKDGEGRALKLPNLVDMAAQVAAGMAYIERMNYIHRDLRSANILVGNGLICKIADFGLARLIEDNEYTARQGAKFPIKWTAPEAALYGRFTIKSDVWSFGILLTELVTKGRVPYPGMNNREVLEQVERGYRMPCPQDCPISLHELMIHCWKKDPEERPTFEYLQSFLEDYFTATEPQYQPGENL

[9] = molecular target: Hck (Homo sapiens, UniProt P08631); assay: Caliper kinase profiling: Hck; format: biochemical
Sequence of Hck (P08631 whole entry): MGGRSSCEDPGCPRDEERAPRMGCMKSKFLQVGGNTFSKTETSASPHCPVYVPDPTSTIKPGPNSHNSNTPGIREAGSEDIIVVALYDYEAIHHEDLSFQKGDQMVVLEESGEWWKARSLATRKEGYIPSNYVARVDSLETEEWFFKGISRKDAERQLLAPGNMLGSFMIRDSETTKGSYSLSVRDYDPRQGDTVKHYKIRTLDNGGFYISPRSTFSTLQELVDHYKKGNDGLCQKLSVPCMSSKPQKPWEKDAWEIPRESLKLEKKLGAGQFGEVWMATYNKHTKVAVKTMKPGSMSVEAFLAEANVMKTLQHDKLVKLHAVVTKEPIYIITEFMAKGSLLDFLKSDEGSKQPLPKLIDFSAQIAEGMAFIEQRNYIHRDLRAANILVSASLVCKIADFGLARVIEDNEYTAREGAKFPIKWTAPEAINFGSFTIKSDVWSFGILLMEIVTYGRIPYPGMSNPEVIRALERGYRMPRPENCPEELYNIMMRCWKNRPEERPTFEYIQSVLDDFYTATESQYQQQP

[10] = molecular target: ITK (Homo sapiens, UniProt Q08881); assay: Caliper kinase profiling: ITK; format: biochemical; settings: read-out: Average % Inh @ 1 μM
[11] = molecular target: LYN (Homo sapiens, UniProt P07948); assay: Caliper kinase profiling: LYN; format: biochemical
Sequence of LYN (P07948 whole entry): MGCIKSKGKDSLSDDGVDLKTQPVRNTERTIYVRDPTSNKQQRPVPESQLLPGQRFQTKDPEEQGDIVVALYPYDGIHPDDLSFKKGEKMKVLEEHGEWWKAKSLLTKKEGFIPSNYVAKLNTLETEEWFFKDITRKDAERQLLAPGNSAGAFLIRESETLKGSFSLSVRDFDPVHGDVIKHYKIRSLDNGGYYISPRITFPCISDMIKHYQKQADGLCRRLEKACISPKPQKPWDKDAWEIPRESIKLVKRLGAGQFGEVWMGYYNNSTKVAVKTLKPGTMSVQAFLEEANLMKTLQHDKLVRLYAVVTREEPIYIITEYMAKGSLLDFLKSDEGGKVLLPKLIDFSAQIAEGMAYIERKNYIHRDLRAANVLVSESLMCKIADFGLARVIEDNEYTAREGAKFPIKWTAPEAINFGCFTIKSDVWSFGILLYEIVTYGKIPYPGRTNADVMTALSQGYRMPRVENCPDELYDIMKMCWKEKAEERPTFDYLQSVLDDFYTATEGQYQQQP

[12] = molecular target: PAK5(PAK7) (Homo sapiens, UniProt Q9P286); assay: Caliper kinase profiling: PAK5(PAK7); format: biochemical; settings: read-out: Average % Inh @ 1 μM
[13] = molecular target: PhKg2 (Homo sapiens, UniProt P15735); assay: Caliper kinase profiling: PhKg2; format: biochemical; settings: PhKg2, 1 μM; read-out: Average % Inh @ 1 μM
[14] = molecular target: RET (Homo sapiens, UniProt P07949); assay: Caliper kinase profiling: RET; format: biochemical
Sequence of RET (P07949 29-1114): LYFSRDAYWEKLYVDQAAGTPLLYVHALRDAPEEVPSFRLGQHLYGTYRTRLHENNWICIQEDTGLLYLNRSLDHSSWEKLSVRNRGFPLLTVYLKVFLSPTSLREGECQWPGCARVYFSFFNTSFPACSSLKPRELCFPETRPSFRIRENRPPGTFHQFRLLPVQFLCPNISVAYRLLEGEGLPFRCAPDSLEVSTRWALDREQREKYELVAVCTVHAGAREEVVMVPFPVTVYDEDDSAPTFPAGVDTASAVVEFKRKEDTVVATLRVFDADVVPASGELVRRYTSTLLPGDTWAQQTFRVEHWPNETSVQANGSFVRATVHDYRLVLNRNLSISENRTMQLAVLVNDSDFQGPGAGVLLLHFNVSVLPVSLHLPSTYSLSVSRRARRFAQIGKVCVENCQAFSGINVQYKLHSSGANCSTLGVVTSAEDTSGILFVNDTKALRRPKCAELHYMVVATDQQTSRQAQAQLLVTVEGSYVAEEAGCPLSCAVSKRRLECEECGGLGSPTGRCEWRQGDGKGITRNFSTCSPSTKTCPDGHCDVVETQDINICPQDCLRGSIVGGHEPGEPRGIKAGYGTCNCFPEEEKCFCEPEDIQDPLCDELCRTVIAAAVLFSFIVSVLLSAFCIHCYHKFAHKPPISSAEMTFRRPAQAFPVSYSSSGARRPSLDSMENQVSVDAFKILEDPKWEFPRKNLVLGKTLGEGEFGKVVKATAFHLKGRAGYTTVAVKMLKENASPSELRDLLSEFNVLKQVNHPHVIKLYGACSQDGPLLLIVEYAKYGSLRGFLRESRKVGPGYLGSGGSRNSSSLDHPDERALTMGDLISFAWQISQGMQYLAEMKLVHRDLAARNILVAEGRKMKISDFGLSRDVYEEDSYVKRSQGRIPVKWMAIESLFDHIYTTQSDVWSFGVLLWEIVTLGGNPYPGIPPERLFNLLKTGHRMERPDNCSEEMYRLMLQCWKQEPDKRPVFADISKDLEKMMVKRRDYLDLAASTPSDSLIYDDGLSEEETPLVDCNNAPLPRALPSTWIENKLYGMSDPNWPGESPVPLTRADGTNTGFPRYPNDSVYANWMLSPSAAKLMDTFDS

[15] = molecular target: SRC (Homo sapiens, UniProt P12931); assay: Caliper kinase profiling: SRC; format: biochemical
Sequence of SRC (P12931 whole entry): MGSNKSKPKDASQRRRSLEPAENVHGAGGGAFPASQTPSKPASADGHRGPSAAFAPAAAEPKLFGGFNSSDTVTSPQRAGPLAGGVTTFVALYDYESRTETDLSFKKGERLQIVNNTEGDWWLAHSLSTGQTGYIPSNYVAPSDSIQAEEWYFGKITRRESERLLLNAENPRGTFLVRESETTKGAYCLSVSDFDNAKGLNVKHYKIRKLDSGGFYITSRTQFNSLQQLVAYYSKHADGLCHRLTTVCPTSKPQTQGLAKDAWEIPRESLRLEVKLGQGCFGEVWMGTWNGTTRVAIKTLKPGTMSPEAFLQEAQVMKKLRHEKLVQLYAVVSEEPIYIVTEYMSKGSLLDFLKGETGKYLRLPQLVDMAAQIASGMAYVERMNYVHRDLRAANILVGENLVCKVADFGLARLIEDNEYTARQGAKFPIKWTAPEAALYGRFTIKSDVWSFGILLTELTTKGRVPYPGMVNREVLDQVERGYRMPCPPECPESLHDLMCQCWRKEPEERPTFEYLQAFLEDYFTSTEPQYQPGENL

[16] = molecular target: Yes (Homo sapiens, UniProt P07947); assay: Caliper kinase profiling: Yes; format: biochemical
Sequence of Yes (P07947 whole entry): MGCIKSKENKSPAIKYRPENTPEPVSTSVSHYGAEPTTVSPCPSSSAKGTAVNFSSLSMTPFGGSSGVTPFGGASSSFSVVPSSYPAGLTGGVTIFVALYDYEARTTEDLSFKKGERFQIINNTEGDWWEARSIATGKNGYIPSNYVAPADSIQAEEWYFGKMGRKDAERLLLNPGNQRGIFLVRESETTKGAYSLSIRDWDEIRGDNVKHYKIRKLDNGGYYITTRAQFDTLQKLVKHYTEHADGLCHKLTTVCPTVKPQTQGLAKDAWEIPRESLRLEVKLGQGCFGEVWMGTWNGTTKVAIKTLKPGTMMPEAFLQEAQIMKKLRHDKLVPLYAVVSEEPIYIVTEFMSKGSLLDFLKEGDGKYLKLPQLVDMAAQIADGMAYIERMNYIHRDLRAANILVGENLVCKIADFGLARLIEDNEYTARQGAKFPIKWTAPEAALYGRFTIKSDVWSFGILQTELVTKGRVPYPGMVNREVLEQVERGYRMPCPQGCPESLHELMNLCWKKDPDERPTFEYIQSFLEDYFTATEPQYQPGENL

[17] = tested on: human colon cancer COLO-205 cells; assay: Efficacy in xenograft model of human colon cancer; format: in vivo, mice
Description: (§1) To evaluate the efficacy of tumor growth inhibition, the compound 8b was studied using human cancer mouse models. The models are prepared by subcutaneously or orthotopically implanting mice with human cancer cells. When the tumor size of the mice develops (e.g., reaches 100 mm^3), the mice are divided into groups for treatment with compound 8b (where different groups receiving the compound 8b may be administered different amounts of the compound 8b) or are provided no compound as a control. The mice are treated (e.g., orally administered a compound of the invention) for a period of time. During the course of the study, the tumor is measured and the weight of the mice is determined. After the treatment period, the mice are sacrificed shortly (e.g. 1 or 2 hours) after the final dose. Blood and tissue are collected for biochemical analysis.
To evaluate the efficacy of tumor growth inhibition, compound 8b was studied using a human colon cancer mouse model. […] Tumor volume and mouse body weight were monitored over the 20 day experiment. […]
(§2) The appropriate amount of compound 8b was sonicated in a PEG-400 solution (80% w/v in case of Example B6B; and 50% w/v in case of Example B6C) to completely dissolve the compound, followed by dropwise addition of the required amount of H2O. […] During the course of the study, the tumor was measured and the weight of the mice was determined. […]

[18] = tested on: human breast cancer MCF7 cells; assay: Efficacy in xenograft model of human breast cancer; format: in vivo, mice
Description: as §1
To evaluate the efficacy of tumor growth inhibition, compound 8b was studied using a human breast cancer mouse model. […]
as §2

[19] = 10 nM, read-out: Average % Inh @ 10 nM
[20] = 100 nM, read-out: Average % Inh @ 100 nM
[21] = 1 μM, read-out: Average % Inh @ 1 μM

- inhibition at 0.01 µM ([1]; AMPK-α2/β1/γ1, 10 nM, read-out: Average % Inh @ 10 nM): < 39%
- inhibition at 0.1 µM ([1]; AMPK-α2/β1/γ1, 100 nM, read-out: Average % Inh @ 100 nM): 40 to 59%
- inhibition at 1 µM ([1]; AMPK-α2/β1/γ1, 1 μM, read-out: Average % Inh @ 1 μM): > 60%
- inhibition at 0.01 µM [2, 19]: < 39%
- inhibition at 0.1 µM [2, 20]: < 39%
- inhibition at 1 µM [2, 21]: > 60%
- inhibition at 1 µM [3]: > 60%
- inhibition at 1 µM [4]: > 60%
- inhibition at 0.01 µM ([5]; FGFR2, 10 nM, read-out: Average % Inh @ 10 nM): < 39%
- inhibition at 0.1 µM ([5]; FGFR2, 100 nM, read-out: Average % Inh @ 100 nM): < 39%
- inhibition at 1 µM ([5]; FGFR2, 1 μM, read-out: Average % Inh @ 1 μM): > 60%
- inhibition at 0.01 µM [6, 19]: < 39%
- inhibition at 0.1 µM [6, 20]: < 39%
- inhibition at 1 µM [6, 21]: > 60%
- inhibition at 1 µM [7]: > 60%
- inhibition at 0.01 µM [8, 19]: < 39%
- inhibition at 0.1 µM [8, 20]: > 60%
- inhibition at 1 µM [8, 21]: > 60%
- inhibition at 0.01 µM [9, 19]: < 39%
- inhibition at 0.1 µM [9, 20]: 40 to 59%
- inhibition at 1 µM [9, 21]: > 60%
- inhibition at 1 µM [10]: 40 to 59%
- inhibition at 0.01 µM [11, 19]: < 39%
- inhibition at 0.1 µM [11, 20]: 40 to 59%
- inhibition at 1 µM [11, 21]: > 60%
- inhibition at 1 µM [12]: 40 to 59%
- inhibition at 1 µM [13]: 40 to 59%
- inhibition at 0.01 µM [14, 19]: < 39%
- inhibition at 0.1 µM [14, 20]: 40 to 59%
- inhibition at 1 µM [14, 21]: > 60%
- inhibition at 0.01 µM [15, 19]: < 39%
- inhibition at 0.1 µM [15, 20]: > 60%
- inhibition at 1 µM [15, 21]: > 60%
- inhibition at 0.01 µM [16, 19]: < 39%
- inhibition at 0.1 µM [16, 20]: 40 to 59%
- inhibition at 1 µM [16, 21]: > 60%
Compound: O=C(Nc1ccc(F)nc1)C1CCCN1c1nc2c(c(Nc3cc(C4CC4)[nH]n3)n1)CCC2 (single isomer, unassigned) [Compound 2b, 1-(4-(5-cyclopropyl-1H-pyrazol-3-ylamino)-6,7-dihydro-5H-cyclopenta[d]pyrimidin-2-yl)-N-(6-fluoropyridin-3-yl)pyrrolidine-2-carboxamide]

Compound: CC(C)c1cc(Nc2nc(N3CCCC3C(=O)Nc3ccc(F)nc3)nc3c2CCC3)n[nH]1 (single isomer, unassigned) [Compound 8b]
- tumor burden ([17]; COLO205 colon cancer model, nude mice, 1, 3, 10, 15 mg/kg oral, 20 day experiment (FIG. 1)): dose-dependently and significantly reduced tumor burden
- body weights of the mice ([17]; COLO205 xenograft model (FIG. 3)): dose-dependently reduced body weights
- tumor burden ([18]; MCF7 breast cancer model, nude mice, 10 and 15 mg/kg/po, various schedules (FIG. 2)): dose-dependently and significantly reduced tumor burden
- body weights of the mice ([18]; MCF7 xenograft model (FIG. 4)): dose-dependently reduced body weights
